Reference: patent publication US20260183274A1, “PDK1 REGULATORY COMPOUND AND COMPOSITION CONTAINING THE SAME” (PROVIBIO CO., LTD., priority 2024, published 2026)

What was measured:
[1] = tested on: T cells isolated from mouse spleens; assay: T cell proliferation inhibition (CFSE flow cytometry, anti-CD3/anti-CD28 stimulation); format: cell-based; conditions: mouse spleen T cells, 3 days; for inhibition at 0.01 µM / inhibition at 0.1 µM / inhibition at 1 µM / inhibition at 10 µM / inhibition at 30 µM / inhibition at 50 µM: Mus musculus, T-cell, 72 h, read-out: Proliferation inhibition rate (%)
Outline: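 Proliferation inhibition (%) came from flow cytometry of CFSE dilution after 3 days' culture at 37 °C with compound (10 nM, 100 nM, 1, 10, 30, 50 μM; triplicate wells). Cells were magnetically purified T cells from C57BL/6 mouse spleens, 2×10^5 per well, stimulated with 0.5 μg/mL each anti-CD3 and anti-CD28.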

[2] = tested on: Human B Lymphocyte cell line, SU-DHL-8; assay: Relative cell viability CCK-8, SU-DHL-8; format: cell-based; conditions: 48 hours, untreated (DMSO) = 100%; for viability at 1 µM / viability at 10 µM / viability at 30 µM / viability at 50 µM: Homo sapiens, SU-DHL-8, 48 h; for viability at 1 µM: read-out: Relative cell viability (%), SU-DHL-8, 1 μM; for viability at 10 µM: read-out: Relative cell viability (%), SU-DHL-8, 10 μM; for viability at 30 µM: read-out: Relative cell viability (%), SU-DHL-8, 30 μM; for viability at 50 µM: read-out: Relative cell viability (%), SU-DHL-8, 50 μM
Outline: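 Cells grown in RPMI-1640 with 10% FBS, treated with compound at several concentrations, then given CCK-8 for 4 h at 37° C. Viability expressed as percent of DMSO-treated cells.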

[3] = tested on: Human Cervical Carcinoma cell line, HeLa; assay: Relative cell viability CCK-8, HeLa; format: cell-based; conditions: 48 hours
Method: Similarly, human-derived cervical cancer cell line HeLa and renal cancer cell line ACHN, obtained from the Korean Cell Bank, were cultured in DMEM medium containing 10% FBS, 100 U/mL penicillin, and 100 μg/mL streptomycin.
(§1) Following stabilization, the cells were harvested using Trypsin-EDTA treatment, centrifuged at 1,200 rpm for 3 minutes, the supernatant was removed, and the cells were resuspended in the same medium. They were then seeded into a 96-well plate (Costar 96-well cell culture plate, Corning) at 100 μL per well, and the conditions were adjusted as indicated in Table 5.
(§2) The cells were cultured in a 5% CO2 incubator at 37° C. for 24 hours, and after stabilization of the cells, each plate was washed with 200 μL of PBS per well and treated with 50 μL of culture medium per well.
(§3) The compounds according to the present invention or the control group (DMSO) were added at concentrations of 0, 10, 30, and 50 μM in 50 μL aliquots to the plates, and the plates were cultured at 37° C. in a 5% CO2 incubator for 48 hours.
(§4) After that, 10 μL of CCK-8 was added to each well, and the plate was incubated again at 37° C. in a 5% CO2 incubator for 2 hours.
(§5) In other words, when the survival rate of untreated cells (DMSO) is set at 100%, the relative cell survival rate in each group treated with the drug at different concentrations is indicated.

[4] = tested on: Human Breast Cancer cell line, MCF-7; assay: Relative cell viability CCK-8, MCF-7; format: cell-based; conditions: 48 hours
Method: (§6) Human-derived breast cancer cell line MCF-7, human-derived lung cancer cell line A549, human-derived colorectal cancer cell line HCT-116, human pancreatic cancer cell line AsPC-1, glioblastoma cell line A172, and melanoma cell line Malme-3M were obtained from the Korean Cell Bank. gastric cancer cell line SNU-719, and bladder cancer cell line T24 were cultured in RPMI-1640 medium containing 10% FBS.
as §1, §2, §3, §4, §5

[5] = tested on: Human Colorectal Carcinoma cell line, HCT-116; assay: Relative cell viability CCK-8, HCT-116; format: cell-based; conditions: Homo sapiens, HCT-116, 48 hours
Method: as §6, §1, §2, §4, §5

[6] = tested on: Human Pancreas Adenocarcinoma cell line, AsPC-1; assay: Relative cell viability CCK-8, AsPC-1; format: cell-based; conditions: 48 hours
Method: as §6, §1, §2, §4, §5

[7] = tested on: Human Gastric cancer cell, SNU-719; assay: Relative cell viability CCK-8, SNU-719; format: cell-based; conditions: 48 hours
Method: as §6, §1, §2, §4, §5

[8] = tested on: Human Bladder cancer cell, T24; assay: Relative cell viability CCK-8, T24; format: cell-based; conditions: Homo sapiens, 48 h
Method: as §6, §1, §2, §4, §5

[9] = tested on: HCT-116 colon cancer cell lines; assay: Matrigel Invasion Assay, HCT-116; format: cell-based, human; conditions: 24 hours treatment, FIG. 30
Method: To evaluate the metastasis inhibitory efficacy of the compounds of the present invention on HCT-116 colon cancer cell lines, an Invasion Assay using Matrigel was performed to assess the cells' invasion ability.
First, Matrigel was thawed on ice in RPMI-1640 medium without FBS, then diluted with DMEM at a ratio of 1:20.
The diluted Matrigel mixture was applied to the upper chamber at 100 μl per well, and 750 μl of RPMI-1640 without FBS was added to the lower chamber.
The plates were then incubated at 37° C. for 1 hour to allow the Matrigel to solidify.
After coating, the Matrigel mixture in the upper chamber was removed using a pipette, and the chamber was washed with RPMI without FBS.
Human-derived colorectal cancer cell line HCT-116, obtained from the Korean Cell Bank, was cultured in RPMI-1640 medium containing 10% FBS.
Following stabilization, the cells were harvested using Trypsin-EDTA treatment, centrifuged at 1,200 rpm for 3 minutes, the supernatant was removed, and the cells were resuspended in the same medium, the medium in the lower chamber was replaced with 750 μl of RPMI-1640 supplemented with 10% FBS, and the cells were seeded into the upper chamber at a density of 5×10^4 cells/well.
The cells were cultured for 24 hours after attachment, and then the compounds according to the present invention (G078, G085, G086, G088, G089, PBK-2024-010, PBK-2025-010, PBK-2025-013, PBK-2025-016) and the control substance DMSO were diluted and added to the upper chamber after removing the medium.
Additionally, the medium in the lower chamber was replaced with fresh RPMI-1640 containing FBS, and the culture was continued.
After an additional 24 hours, the medium was removed, and 1 ml of methanol was added for 10 minutes to fix the cells.
Subsequently, 1 ml of Hematoxylin was added and reacted for 5 minutes, followed by 1 ml of Eosin, which was reacted for 30 seconds. The sample was then washed with distilled water (DW).
After staining was complete, any remaining cells in the upper chamber were removed. Finally, the infiltrated cells were observed under a microscope, photographed, and the degree of infiltration was analyzed.

SMILES | inhibition at 0.01 µM ([1]; compound 10 nM) [%] | inhibition at 0.1 µM ([1]; compound 100 nM) [%] | inhibition at 1 µM ([1]; compound 1 μM) [%] | inhibition at 10 µM ([1]; compound 10 μM) [%] | inhibition at 30 µM ([1]; compound 30 μM) [%] | inhibition at 50 µM ([1]; compound 50 μM) [%] | viability at 1 µM [2] [%] | viability at 10 µM [2] [%] | viability at 30 µM [2] [%] | viability at 50 µM [2] [%] | viability at 1 µM [5] [%] | viability at 10 µM [5] [%] | viability at 30 µM [5] [%] | viability at 50 µM [5] [%] | viability at 1 µM [7] [%] | viability at 10 µM [7] [%] | viability at 30 µM [7] [%] | viability at 50 µM [7] [%] | Number of infiltrated cells (invasion) [9] | also measured
Nc1ncccc1C(=O)NCCCCCCCCCCCCN1CCc2ccccc2C1 [Compound 3, 2-Amino-N-[12-(3,4-dihydro-1H-isoquinolin-2-yl)-dodecyl]-nicotinamide] | 4.99 | 0 | 0 | 88.3 | 100 | 100 | 29.1 | 25.7 | 24.7 | 23.5 |  |  |  |  |  |  |  |  |  | viability at 1 µM ([3]; 1 μM): 16.4%; viability at 10 µM ([3]; 10 μM): 3.26%; viability at 30 µM ([3]; 30 μM): 1.07%; viability at 50 µM ([3]; 50 μM): 0.73%; viability at 1 µM ([4]; MCF7, 1 μM): 35.4%; viability at 10 µM ([4]; MCF7, 10 μM): 9.1%; viability at 30 µM ([4]; MCF7, 30 μM): 4.02%; viability at 50 µM ([4]; MCF7, 50 μM): 1.95%
O=C(NCCCCCCCCCCCCN1CCN2CCCC2C1)c1cccnc1 (stereo not drawn) [Compound 23, N-(12-(hexahydropyrrolo[1,2-a]pyrazin-2 (1H)-yl)dodecyl) nicotinamide] | -12.8 | 100 | 100 | 100 | 100 | 100 | 16.1 | 15.7 | 9.17 | 1.97 | 13.1 | 14.6 | 14 | 13 | 36.1 | 35.9 | 40.4 | 35.6 | reduction in the number of infiltrated cells | viability at 1 µM ([6]; ASPC1, 1 μM): 42.4%; viability at 10 µM ([6]; ASPC1, 10 μM): 44.5%; viability at 30 µM ([6]; ASPC1, 30 μM): 42.7%; viability at 50 µM ([6]; ASPC1, 50 μM): 42%; viability at 1 µM ([8]; 1 μM): 10%; viability at 10 µM ([8]; 10 μM): 10.1%; viability at 30 µM ([8]; 30 μM): 9.53%; viability at 50 µM ([8]; 50 μM): 9.46%
CC(C)(C)OC(=O)N[C@H]1CCN(CCCCCCCCCCCCNC(=O)c2cccnc2N)C1 [Compound 49, tert-Butyl(S)-(1-(12-(2-aminonicotinamido)dodecyl)pyrrolidin-3-yl) carbamate] |  |  |  |  |  |  |  |  |  |  |  |  |  |  |  |  |  |  | reduction in the number of infiltrated cells | Proliferation inhibition rate (%) ([1]; compound 10 nM): −22.61%; Proliferation inhibition rate (%) ([1]; compound 100 nM): 100.00%; Proliferation inhibition rate (%) ([1]; compound 1 μM): 100.00%; Proliferation inhibition rate (%) ([1]; compound 10 μM): 100.00%; Proliferation inhibition rate (%) ([1]; compound 30 μM): 100.00%; Proliferation inhibition rate (%) ([1]; compound 50 μM): 100.00%; Relative cell viability (%), SU-DHL-8 ([2]; 1 μM): 8.93%; Relative cell viability (%), SU-DHL-8 ([2]; 10 μM): 8.02%; Relative cell viability (%), SU-DHL-8 ([2]; 30 μM): 7.48%; Relative cell viability (%), SU-DHL-8 ([2]; 50 μM): 4.09%
Nc1ncccc1C(=O)NCCCCCCCCCCCCN1CC(F)C1 [Compound 52, 2-Amino-N-(12-(3-fluoroazetidin-1-yl)dodecyl)nicotinamide] | 11.3 | 13.8 | 100 | 100 | 100 | 100 | 14.2 | 11.6 | 10.1 | 9.15 | 33.6 | 13.3 | 12.7 | 11.8 | 41.2 | 35.9 | 35.5 | 35 | reduction in the number of infiltrated cells | 
